According to patent US5750139A (priority 1994, dated 1998):
Where two headings read alike, the source gives them in different places.

How the values were obtained:
[1] = intra-individual pharmacokinetics, TDS versus oral tablet, one healthy volunteer; assay type: in vivo, human
Procedure: For better comparability, some pharmacokinetic preliminary experiments were carried out on one and the same healthy volunteer (i.e. intra-individually).

[2] = cited from earlier work
[3] = GCP-complying pharmacokinetic study of TDS with 14 healthy volunteers; assay type: in vivo, human
[4] = kinetics of active ingredient diffusion through the membrane in vitro; assay type: physicochemical
Procedure: The TDS to be tested were preselected by means of in vitro measurements of the dialysis of benzopyrone from the TDS investigated. For this purpose, the TDS available was stuck, on the side facing the skin, i.e. the membrane side, by means of the adhesive layer, in a dialysis apparatus and was dialyzed against an excess of a solution of polyethylene glycol 400 or against an albumin or saline solution for at least 24 h. […] The half-lives for a 50% and 95% diffusion yield (t/2 50% and t/2 95%, respectively) were calculated from the linear part of the dialysis curves. For example, three selected formulations gave the following half-lives (Table 1): […]

rat skin = conditions: cited from earlier work
inflamed target tissues = conditions: in vivo
[5] = diffusion/dialysis of benzopyrone from formulation through cellulose membrane (layer thickness, pore size, viscosity); assay type: physicochemical
Description: When the same formulation was used, for example, the diffusion rate increased only by a factor of 1.6 when the pore volume was increased from 20 kD to 100 kD.

[6] = 96 h application of a TDS: bioavailability, blood levels of benzopyrone during application and after removal
[7] = test system: rat skin versus human skin; conditions: cited from earlier work
[8] = human, in vivo, topical or ocular
[9] = human, blood, topical or ocular, 200 mg

Compound: O=c1ccc2ccc(O)cc2o1 [7-hydroxybenzopyrone]
- blood levels of II, TDS lower than after oral dose ([1]; TDS versus oral): 6-10 times
- maximum blood concentrations of II, TDS versus oral, based on the same absorbed dose ([1]; TDS versus oral, same absorbed dose): approximately comparable
- blood levels of 7-hydroxybenzopyrone, oral compared with transdermal ([1]; oral versus transdermal): substantially higher
- glucuronidation step faster than preceding oxidation reaction ([2]; liver, coupled metabolic conversion): about 3.5 times
- decrease of blood levels of 7-hydroxybenzopyrone ([3]; after removal of the TDS): decreased rapidly

Compound: O=c1ccc2ccccc2o1 [benzopyrone, 5,6-benzo-alpha-pyrone]
- kinetics of active ingredient diffusion through the membrane [4]: linear kinetics
- unabsorbed proportion of benzopyrone after 12 hours (rat skin; 1 g of 5% ointment over 30 cm^2, rat 1): 1.95 percent by weight
- unabsorbed proportion of benzopyrone after 12 hours (rat skin; 1 g of 5% ointment over 30 cm^2, rat 2): 13.24 percent by weight
- unabsorbed proportion of benzopyrone after 12 hours (rat skin; 1 g of 5% ointment over 30 cm^2, rat 3): 42.8 percent by weight
- accumulation in tissue (inflamed target tissues): preferably accumulates in inflamed target tissues
- blood levels of benzopyrone (I), transdermal higher than after oral administration ([1]; TDS versus oral): 10 times
- maximum blood levels of (I), TDS higher than after oral, based on same dose absorbed per day ([1]; human, in vivo, po): 57 times
- Tmax ([1]; human, in vivo, po, t max of benzopyrone (I)): 3 h
- bioavailability at 48 h [1, 8]: 35%
- first pass metabolism in the liver ([2]; oral application): virtually quantitative
- unchanged benzopyrone entering the circulation from the liver ([2]; oral application): virtually no unchanged benzopyrone
- concentration at 4 h ([3]; human, blood, topical or ocular, 4 h after removal of the TDS (200 mg)): 4.96 ng/mL
- concentration at 3 h ([3]; human, blood, topical or ocular, single TDS 200 mg, application time 3 h): 23.4 ng/mL
- concentration at 24 h ([3]; human, blood, topical or ocular, single TDS 200 mg, application time 24 h): 27.3 ng/mL
- time to steady state of blood benzopyrone level ([3]; single TDS 200 mg): 3 h
- dialyzable amount of benzopyrone with increasing layer thickness ([5]; 20% formulation, cellulose membrane 20 kD, 2.5 cm^2): increases with increasing layer thickness until the saturation limit of the control membrane is reached and then remains constant
- Amount of benzopyrone diffusing within 8 h ([5]; layer thickness 0.1 mm, 20% formulation, cellulose membrane 20 kD, 2.5 cm^2): 8 mg
- Amount of benzopyrone diffusing within 8 h ([5]; layer thickness 0.2 mm, 20% formulation, cellulose membrane 20 kD, 2.5 cm^2): 14 mg
- Amount of benzopyrone diffusing within 8 h ([5]; layer thickness 0.4 mm, 20% formulation, cellulose membrane 20 kD, 2.5 cm^2): 14 mg
- rate of dialysis of the benzopyrone ([5]; on increasing the viscosity of the formulation): considerably reduced
- factor of increase of the diffusion rate ([5]; pore volume increased from 20 kD to 100 kD, same formulation): 1.6
- active ingredient release over total application time ([6]; 96 h application): linear
- release of benzopyrone over 96 h ([6]; TDS worn 4 days): takes place in a constant manner
- concentration at 3 h [6, 9]: 2.4 ng/mL
- concentration at 6 h [6, 9]: 0.8 ng/mL
- concentration at 48 h [6, 9]: 5.5 ng/mL
- concentration at 72 h [6, 9]: 6.1 ng/mL
- concentration at 82 h [6, 9]: 8.7 ng/mL
- concentration at 96 h [6, 9]: 6.6 ng/mL
- bioavailability at 96 h [6, 8]: 70%

Compound: CC1(C)C(C=C(Cl)Cl)C1C(=O)OC(C#N)c1cccc(Oc2ccccc2)c1 (centres unmarked) [cypermethrin]
- penetration of rat skin more readily than human skin [7]: 20 times

Compound: O=C(O)[C@H]1O[C@@H](Oc2ccc3ccc(=O)oc3c2)[C@H](O)[C@@H](O)[C@@H]1O [glucuronide (III)]
- pharmacological activity ([2]; in vivo): pharmacologically inactive

Compound: COC1=CC(=O)C[C@@H](C)[C@]12Oc1c(Cl)c(OC)cc(OC)c1C2=O [griseofulvin]
- penetration of rat skin more readily than human skin [7]: 14 times
